The results in this text go back to US7595327B2, “Beta-sulfonamide hydroxamic acid inhibitors of tace/matrix metalloproteinase” (priority 2005, dated 2009).

Where only a bound is given, the exact number is not on record here.

The target in test [1] is T1, recombinant human catalytic domain of MMP-1 (Homo sapiens, UniProt P03956).
T1 construct: The source of enzyme in the assay was the recombinant human catalytic domain of MMP-1
T1 sequence (P03956 100-269 limits assumed): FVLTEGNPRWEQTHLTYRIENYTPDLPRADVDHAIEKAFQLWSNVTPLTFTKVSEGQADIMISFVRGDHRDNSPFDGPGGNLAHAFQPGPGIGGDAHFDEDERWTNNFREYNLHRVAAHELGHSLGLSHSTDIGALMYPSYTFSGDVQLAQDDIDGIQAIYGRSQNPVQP
The test is described as follows: In-vitro fluorescence assay of MMP-1 activity. In kind it is biochemical.
Protocol: (§1) A continuous assay was used in which the substrate is a synthetic peptide containing a fluorescent group (7-methoxycoumarin; Mca) that is quenched by energy transfer to a 2,4-dinitrophenyl group. […] The substrate used was Mca-PQGL-(3-[2,4-dinitrophenyl]-L-2,3-diaminopropionyl)-AR-OH (denoted as Wammp-5, custom synthesized by AnaSpec, Inc.). The assay buffer consisted of 50 mM Hepes (pH 7.4), 100 mM NaCl, 5 mM CaCI2, and 0.005% Brij-35. Each well of black polystyrene 96-well plates contained a 200 μL reaction mixture consisting of assay buffer, purified MMP (final concentration of 25 ng/ml, prepared by diluting with the assay buffer), and varied concentrations of inhibitor (prepared by serially diluting a given inhibitor in DMSO in 96-well polypropylene plate). […] The enzymatic reactions were initiated by adding the substrate to a final concentration of 20 μM, and mixing 10 times with a pipette. The final DMSO concentration in the assay was 6.0%.
(§2) Plots of the inhibitor concentration vs. the percent inhibition were fit to the following equation: y=(a−d)/[1+(x/c)^b]+d, a general sigmoidal curve with Hill slope, a to d. x is the inhibitor concentration under test. y is the percent inhibition. a is the limiting response as x approaches zero. As x increases without bound, y tends toward its limit d. c is the inflection point (IC50) for the curve. That is, y is halfway between the lower and upper asymptotes when x=c. b is the slope factor or Hill coefficient.

The target of test [2] is T2, recombinant human MMP-2 (Homo sapiens, UniProt P08253).
T2 sequence (P08253 110-660): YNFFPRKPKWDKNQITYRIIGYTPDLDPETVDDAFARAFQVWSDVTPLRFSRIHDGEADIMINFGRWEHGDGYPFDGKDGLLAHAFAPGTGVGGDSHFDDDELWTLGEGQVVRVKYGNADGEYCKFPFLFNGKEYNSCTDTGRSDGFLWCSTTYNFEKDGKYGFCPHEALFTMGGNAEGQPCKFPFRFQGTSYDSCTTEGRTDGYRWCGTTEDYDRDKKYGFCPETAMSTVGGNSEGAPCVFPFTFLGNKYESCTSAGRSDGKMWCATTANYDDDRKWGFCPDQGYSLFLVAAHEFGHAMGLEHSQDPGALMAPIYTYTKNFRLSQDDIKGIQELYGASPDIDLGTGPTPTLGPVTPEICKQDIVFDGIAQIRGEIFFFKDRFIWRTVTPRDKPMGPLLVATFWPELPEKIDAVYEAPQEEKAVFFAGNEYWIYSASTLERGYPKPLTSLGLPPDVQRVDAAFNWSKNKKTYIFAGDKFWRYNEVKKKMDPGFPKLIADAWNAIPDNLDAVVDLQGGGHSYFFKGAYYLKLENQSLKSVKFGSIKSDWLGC
Put plainly: In-vitro fluorescence assay of MMP-2 activity. In kind it is biochemical.
Protocol: as §1, §2

Test [3] concerns the target T3, recombinant human MMP-7 (Homo sapiens, UniProt P09237).
T3 construct: Active, recombinant human MMP-7 was purchased from Calbiochem (catalog #444270; expressed in E. coli, 19 kDa); purchased Calbiochem 444270; host or cells: E. coli
T3 sequence (P09237 95-267): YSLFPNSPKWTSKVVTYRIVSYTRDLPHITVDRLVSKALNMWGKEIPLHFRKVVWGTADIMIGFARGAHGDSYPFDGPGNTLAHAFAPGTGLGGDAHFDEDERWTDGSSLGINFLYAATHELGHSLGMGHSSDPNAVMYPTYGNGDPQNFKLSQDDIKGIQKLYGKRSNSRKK
Put plainly: In-vitro fluorescence assay of MMP-7 activity. The format is biochemical. The procedure: The method was similar to that for the determination of MMP-1 activity, described above, with the following differences. Active, recombinant human MMP-7 was purchased from Calbiochem (catalog #444270; expressed in E. coli, 19 kDa). […] The concentration of the substrate stock was spectrophotometrically determined using the extinction coefficient at 410 nm of 7500 M^−1 cm^−1. The assay buffer (pH 7.4) consisted of 50 mM Hepes, 100 mM NaCl, 5 mM CaCI2, and 0.005% Brij-35. […] The plates were then incubated at room temperature for 30 minutes. The enzymatic reactions were initiated by adding substrate to a final concentration of 15 μM and were mixed by pipelting up and down. The final DMSO concentration in the assay was 10% and the final, total assay volume was 200 μl. […]

Test [4] concerns the target MMP-13 (Homo sapiens, UniProt P45452). Put plainly: In-vitro fluorescence assay of MMP-13 activity. In kind it is biochemical. The protocol:
See Knight, C. […] […].
The method was essentially the same as for the determination of MMP-1 activity, described above, except that the final concentration of purified MMP in the assay was 0.5 nM, prepared by diluting with the assay buffer.

Test [5] deals with T4, recombinant human catalytic domain of MMP-14 (Homo sapiens, UniProt P50281).
T4 construct: 20 kDa; purchased Chemicon International, Inc. CC1041
The test is described as follows: In-vitro fluorescence assay of MMP-14 activity. In kind it is biochemical. The protocol:
The results were analyzed as described for MMP-13 activity, above.

In test [6] the test system is TNF-α secretion in Raw 264.7 cells. Put plainly: Cell-based assay for inhibition of TNF-α secretion in Raw cells. The settings on record: Mus musculus, RAW264.7, LPS 100 ng/ml, 4 hr. The method, boiled down: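 Confluent Raw 264.7 cells were seeded overnight, refed, and pre-incubated 1 hr with compound (0.2% final DMSO), then stimulated with LPS at 100 ng/ml final for 4 hr at 37° C. Supernatant TNF-α measured by ELISA; % inhibition and IC50 by curve fitting.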

Test [7] concerns LPS-induced TNF-α secretion in human whole blood. Put plainly: Human whole blood assay for LPS-induced TNF-α secretion. The settings on record: Homo sapiens, LPS 100 ng/ml, read-out: TNF Secretion HWB IC50. In kind it is cell-based. In outline:
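Fresh blood from healthy volunteers pre-incubated 1 h at 37° C with compound (final DMSO <0.2%), then stimulated with 100 ng/ml LPS for 4 h or overnight at 37° C with rotation. Supernatant TNF-α measured by ELISA; percent inhibition and IC50 derived by curve fitting.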

The target of test [8] is recombinant human MMP-8 (Homo sapiens, UniProt P22894). Put plainly: In-vitro fluorescence assay of MMP-8 activity.
Sequence of recombinant human MMP-8 (P22894 101-467): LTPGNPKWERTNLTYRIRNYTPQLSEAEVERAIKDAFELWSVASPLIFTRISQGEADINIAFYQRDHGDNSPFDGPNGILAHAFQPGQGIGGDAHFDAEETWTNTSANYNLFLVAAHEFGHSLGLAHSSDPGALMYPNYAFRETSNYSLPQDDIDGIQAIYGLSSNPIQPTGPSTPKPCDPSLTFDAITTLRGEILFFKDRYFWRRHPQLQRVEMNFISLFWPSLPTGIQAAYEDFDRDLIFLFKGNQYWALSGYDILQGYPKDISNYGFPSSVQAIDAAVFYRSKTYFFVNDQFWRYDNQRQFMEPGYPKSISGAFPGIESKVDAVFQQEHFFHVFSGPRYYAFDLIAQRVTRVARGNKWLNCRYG

For `Cc1cc(COc2ccc(S(=O)(=O)N[C@@H]3CN(S(C)(=O)=O)C[C@@H]3C(=O)NO)cc2)c2ccccc2n1` (relative stereo) [Example 17, cis-N-Hydroxy-4-[({4-[(2-methylquinolin-4-yl)methoxy]phenyl}sulfonyl)amino]-1-(methylsulfonyl) pyrrolidine-3-carboxamide], the half-inhibitory concentration (IC50) (in general, the point on the concentration scale where inhibition reaches its midpoint) was over 16700 nM in test [1]; over 10000 nM in test [2]; 668 nM in test [3]; over 10000 nM in test [4]; over 16700 nM in test [5]; 24 nM in test [6]. For the same compound, the concentration for half-maximal inhibition (IC50) in test [7] was 340 nM; in test [8] it was over 16700 nM.
On to `Cc1cc(COc2ccc(S(=O)(=O)N[C@@H]3CN(C=O)C[C@@H]3C(=O)NO)cc2)c2ccccc2n1` (relative stereo) [Example 20, cis-1-Formyl-N-hydroxy-4-[({4-[(2-methylquinolin-4-yl)methoxy]phenyl}sulfonyl)amino]pyrrolidine-3-carboxamide], for which the IC50 in test [1] is over 16700 nM; in test [2], over 10000 nM; in test [3], 812 nM; in test [4] it was 10200 nM; in test [5] it was over 16700 nM; in test [6] it was 20 nM. Moreover, the half-maximal inhibitory concentration (IC50) was 120 nM in test [7] and over 16700 nM in test [8].
Take `CCNC(=O)N1C[C@H](C(=O)NO)[C@H](NS(=O)(=O)c2ccc(OCc3cc(C)nc4ccccc34)cc2)C1` (relative stereo) [Example 23, cis-1-Ethyl-N-hydroxy-4-[({4-[(2-methylquinolin-4-yl)methoxy]phenyl}sulfonyl)amino]pyrrolidine-1,3-dicarboxamide]: the IC50 in test [1] was over 16700 nM; in test [2], over 16700 nM; in test [3], 1170 nM; in test [4], over 16700 nM; in test [5] it was over 16700 nM; in test [6] it was 51 nM. Moreover, the results for the IC50 in test [7] and in test [8] were 280 nM and over 16700 nM, respectively.
With `Cc1cc(COc2ccc(S(=O)(=O)N[C@H]3COC[C@H]3C(=O)NO)cc2)c2ccccc2n1` (stereo in doubt) [Example 26, (3S,4R)-4-[4-(2-Methyl-quinolin-4-ylmethoxy)-benzenesulfonylamino]-tetrahydro-furan-3-carboxylic acid hydroxyamide], the IC50 in test [1] is over 16700 nM; in test [2] it was over 16700 nM; in test [3] it was 827 nM; in test [4], over 16700 nM; in test [5], over 16700 nM; in test [6], 12 nM. Moreover, the results for the IC50 in test [7] and in test [8] were 200 nM and over 16700 nM, respectively.
On to `Cc1cc(COc2ccc(S(=O)(=O)N[C@@H]3CCC[C@@H]3C(=O)NO)cc2)c2ccccc2n1` [Example 13, (1S,2R)-N-Hydroxy-2-[({4-[(2-methylquinolin-4-yl)methoxy]phenyl}sulfonyl)amino]cyclopentanecarboxamide], for which the concentration for half-maximal inhibition (IC50) in test [1] was over 16700 nM; in test [2] it was over 10000 nM; in test [3], 444 nM; in test [4] it was over 10000 nM; in test [5], over 16700 nM; in test [6], 9 nM. Moreover, the half-inhibitory concentration (IC50) is 250 nM in test [7] and over 16700 nM in test [8].
`Cc1cc(COc2ccc(S(=O)(=O)N[C@@H]3CN(C(=O)NC(C)(C)C)CC[C@@H]3C(=O)NO)cc2)c2ccccc2n1` [Example 35, 3-[4-(2-Methyl-quinolin4-ylmethoxy)-benzenesulfonylamino]-piperidine-1,4-dicarboxylic acid 1-tert-butylamide 4-hydroxyamide]: the IC50 was over 16700 nM in test [1]; over 16700 nM in test [2]; 4620 nM in test [3]; over 16700 nM in test [4]; over 16700 nM in test [5]; 58 nM in test [6]. The concentration for half-maximal inhibition (IC50) is 800 nM in test [7] and over 16700 nM in test [8].
